In patent publication US12063914B2, “DNA sequence that increases odorant receptor representation in the olfactory system” (Research Foundation of the City University of New York, priority 2015, dated 2024):

How the values were obtained:
[1] = at 25° C.; cited from earlier work
[2] = molecular target: T1, M71 OR (Mus musculus, UniProt Q60893); experiment: Two-bottle discrimination behavioral avoidance task (odor detection threshold) with 24dMACP; format: in vivo
T1 construct: the increase of OSNs expressing the M71 OR results in the coalescence of labeled axons; expressed in transfected cells; host or cells: olfactory sensory neurons of living transgenic mice (4•M71Cα, 5•M71Cα), made by pronuclear injection of the M71 minigene
T1 sequence (Q60893 1-309): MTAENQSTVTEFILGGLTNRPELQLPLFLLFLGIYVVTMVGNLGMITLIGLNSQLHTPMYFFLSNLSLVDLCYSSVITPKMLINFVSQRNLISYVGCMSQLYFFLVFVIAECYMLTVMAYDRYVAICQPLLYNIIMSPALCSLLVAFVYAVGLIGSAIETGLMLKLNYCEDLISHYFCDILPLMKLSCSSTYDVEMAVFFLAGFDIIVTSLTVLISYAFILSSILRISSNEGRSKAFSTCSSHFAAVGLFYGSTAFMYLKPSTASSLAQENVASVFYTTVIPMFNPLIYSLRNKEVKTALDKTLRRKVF
Description: Sensitivity studies performed in Wistar rat neonates and adults have shown that the highest sensitivity to an odor (lowest threshold) correlates with the highest OSN density in the MOE. […] Therefore, it was desirable to assess whether detection of the most robust M71 ligand is amplified in this M71 line. An avoidance task was used in which the odorant 24dMACP is added to drinking water and becomes an aversive stimulus associated with injection of Lithium Chloride (LiCl), a compound known to induce gastric malaise. After conditioning homozygous 4•M71Cα animals and their WT littermates to water containing a 10-4 dilution of 24dMACP, the animals are given the choice between plain water and water with decreasing concentrations of 24dMACP (10^−4, 10^−6, 5×10^−7 and 10^−7). Note that all tested animals are homozygous for M71G, so even WT have a functional M71 OR.
The results are presented as a preference index (PI) for the odorized water for each group of animals which is calculated as the amount of the odorized water consumed divided by the total amount of liquid (odor and no-odor water) consumed over a 24 hr time period (FIG. 3A). A PI of 50% reflects no preference of the animal. […] When presented with 10^−4 and 10^−6 dilutions, both conditioned 4•M71Cα homo and WT animals show a clear aversion towards 24dMACP reflected through an average PI for 24dMACP of about 10%. However, when 24dMACP is delivered at 10^−7 all animals fail to detect the presence of the odor with an average PI of 53.41% for the WT (n=4) and 62.67% for the homozygous animals (n=8).
To compare specific odorant sensitivity between the 5•M71Cα and the 4•M71Cα line, the 2-bottle discrimination behavioral task was performed with 24dMACP as described above (FIG. 3B). […] Even though the same but slightly more significant 0.3 log decrease in odorant detection threshold is observed in the 5•M71Cα line, it is important to mention that 5•M71Cα hemi animals were used which have about 1.6% of their OSNs expressing M71 (similar to the 4•M71Cα homo animals with about 2% M71 expressing OSNs).
Olfactory behavior test: A two-bottle discrimination test was performed as previously described. Since the mice are tested for the ability to detect a single odor in drinking water at increasingly lower concentrations, this discrimination assay is also considered a detection threshold test. Mice 8 weeks old were individually housed and given food ad libitum but restricted access to saccharin-phthalic acid solution (2.1×10^−2 M sodium saccharin and 10^−3M phthalic acid pH 6.5) for 1 h twice a day for two days before the assay begins. This ensures mice would commence drinking the solution during the conditioning. On day 3 (conditioning day) mice are exposed to sodium saccharine phthalic acid (SSPA) solution with 1 dilution of odorized water for 10 minutes. Immediately after, they are injected with lithium chloride intraperitoneally (15 μl/g body weight of a 0.6 M solution) to induce the aversive malaise and lethargy state. After two hours mice are returned to their home cage and given access to two bottles of drinking water; they are given the choice between SSPA solution containing a 10^−4 dilution of the odor versus the non-odorized SSPA solution. During the following 3 days, every 24 hours, the location of the bottles is reversed and the concentration of the odorized solution is decreased to 10^−6, 10^−7 and 0.5×10^−6, respectively. Every day both bottles are weighed to determine the amount of liquid consumed. A preference index was calculated as the amount of odorized solution consumed divided by the total amount of water solution consumed for each mouse for every 24 hour test period at each odor concentration. Student's t test was performed to test statistical significance, assuming two-tailed distribution and two-sample unequal variance. Values are mean±SEM and are plotted on a LOG scale.

[3] = molecular target: T1, M71 OR; experiment: as above; format: in vivo; conditions: naïve, 10^−6 dilution, 24 hr
[4] = molecular target: T2, M71 (Mus musculus, UniProt Q60893); conditions: previous ex vivo data; liquid phase; cited from earlier work
T2 construct: from ex vivo analysis of genetically defined M71 OSNs in gene-targeted mice; host or cells: dendritic knobs of M71-expressing olfactory sensory neurons from gene-targeted mice
T2 sequence (Q60893 1-309): T1 sequence (Q60893 1-309)

## CC(=O)c1ccc(C)cc1C [24dMACP, 2,4-dimethyl acetophenone]
[1]
  saturated vapor pressure (Ps): 0.0811 mmHg
[2]; 5•M71Cα hemi group, dilution 5×10^−7
  average PI: 19.62%
[2]; 5•M71Cα line vs WT (same as 4•M71Cα line)
  decrease in odorant detection threshold: 0.3 log
[2]; WT group of the 5•M71Cα experiment, dilution 5×10^−7
  average PI: 55.32%
[2]; conditioned 4•M71Cα homo and WT animals, 10^−4 and 10^−6 dilutions
  average PI: about 10%
[2]; conditioned 4•M71Cα homozygous mutants, 5×10^−7 dilution
  PI: 26.12%
[2]; conditioned 4•M71Cα homozygous, 10^−7 dilution
  average PI: 62.67%
[2]; conditioned WT (littermates of 4•M71Cα), 5×10^−7 dilution
  PI: 62.79%
[2]; conditioned WT, 10^−4 dilution
  PI: 11.84%
[2]; conditioned WT, 10^−7 dilution
  average PI: 53.41%
[3]; unconditioned 4•M71Cα Homo mice
  preference index (PI) for odorized water: 59%
[3]; unconditioned WT mice
  preference index (PI) for odorized water: 60%
[4]
  elicit a M71 response ex vivo: did
